Measured values from patent US20050209335A1, “Methods for use of TARGRETIN in organ transplant rejection, autoimmune diseases and cancer” (priority 2004, published 2005).
Read-outs that look alike come from different tables or passages of the source.

How the values were obtained:
[1] = test system: acute myeloid leukemia (AML); type: in vivo
Experimental: In these studies, five patients with relapsed refractory AML were treated with TARGRETIN monotherapy.
The first patient had failed induction chemotherapy, had fungal pneumonia, and active leukemia with no immune system. This patient was sent home under hospice care, but given TARGRETIN to take orally in a pill formulation. Within a few months, this patient no longer needed hospice care and had returned to work. It is believed that upon administration of TARGRETIN, this patient was able to maintain an immune system, thereby clearing the fungal pneumonia and preventing further fatal infections.
The second patient was a heart transplant patient who developed AML and failed induction chemotherapy as well as a second line of chemotherapy. With active leukemia and no immune system they were placed on TARGRETIN. […] Upon escalation of the TARGRETIN dose it was observed that their neutrophil count continued to increase and the leukemia count dropped. This increase in neutrophil count and decrease in leukemia count continued with each dose escalation until the patient was taking six TARGRETIN capsules a day. […] This syndrome is a cell differentiation disorder wherein leukemia cells differentiate into normal immune cells. While this syndrome is good in that it boosts the immune system while decreasing the leukemia count, cytokines released by the differentiating neutrophils can cause a pulmonary syndrome. At six TARGRETIN capsules a day the second patient developed a syndrome exactly like that observed in ATRA administration. TARGRETIN treatment was stopped and within one week the neutrophil count dropped from 1500 to 200 and the pulmonary syndrome resolved. TARGRETIN treatment was then restarted at three capsules daily and the neutrophil count returned to 600. This patient continued treatment for an additional 9 months at which time they developed an infection and died. At the time of death their leukemia was still well under control.
The third patient had failed induction therapy and was suffering from active AML with disseminated intravascular coagulation (DIC), a blood clotting disorder relating to active leukemia. This patient was completely bed-ridden. It was believed that they could not tolerate further chemotherapy and was placed on TARGRETIN. […] They also developed a small number of immune cells and was able to return to their home where their physical condition continued to improve. This patient lived for approximately 4.5 months before they developed progressive leukemia. At that point they declined further therapy and expired.
The fourth patient had raging AML. This patient was placed on TARGRETIN but expired within 3 days of starting treatment. It is believed that the TARGRETIN treatment may have been started too late in the course of this patient's disease to provide an effect.
The fifth patient treated with TARGRETIN was suffering from a relapse after already having undergone an allogeneic bone marrow transplant, one of the most aggressive treatments possible for AML. […] This patient ultimately expired, however, from complications relating to their bone marrow transplant.

[2] = test system: T-cell non-Hodgkin's lymphoma; experiment: TARGRETIN in patients with T-cell non-Hodgkin's lymphomas other than cutaneous T-cell lymphoma; type: in vivo, human
Experimental: Specifically, TARGRETIN was administered to a patient suffering from a post-transplant lymphoproliferative disorder type lymphoma. This is a T-cell non-Hodgkin's lymphoma related to organ transplantation. This patient had horrific lymphoma with involvement of their cerebral spinal fluid.
TARGRETIN was administered to a second patient suffering from a rare type of T-cell lymphoma, an angiocentric T-cell lymphoma.

[3] = test system: refractory acute lymphocytic leukemia; experiment: TARGRETIN in combination with low dose chemotherapy in two patients with refractory acute lymphocytic leukemia; type: in vivo, human; conditions: both patients
Experimental: In these experiments, two patients with refractory acute lymphocytic leukemia were treated with TARGRETIN in combination with low dose chemotherapy.

[4] = test system: eczema dermatitis; experiment: TARGRETIN as substitute for tacrolimus and steroids in eczema dermatitis; conditions: in vivo
[5] = Tolerability of TARGRETIN dosing regimes in patients; type: in vivo, human
Source text: Further, by “effective amount” as used herein, it is meant a concentration of TARGRETIN administered by a selected route and dosing schedule which lessens or decreases severity of a symptom of the disease state or condition from which the patient is suffering and/or a concentration of TARGRETIN which increases neutrophil count in a patient and/or a concentration of TARGRETIN which increases the efficacy of a co-administered cancer chemotherapeutic agent. Such amounts can be routinely determined by those skilled in the art based upon the teachings herein as well as what is known in the art about TARGRETIN with respect to treatment of cutaneous T-cell lymphoma. […] Further, the Food and Drug Administration's approved dose for TARGRETIN in the treatment of cutaneous T-cell lymphoma is 300 mg/M^2. It is expected that similar dosages will also be effective in treating autoimmune diseases or disorders, and in particular graft versus host disease, as well as organ transplant rejection.

[6] = test system: melanoma; conditions: single daily oral dose of 450 mg/m^2 in capsule form; cited from earlier work
[7] = test system: squamous cell carcinoma of the head and neck; conditions: cited from earlier work
[8] = test system: non-small-cell lung carcinoma; conditions: oral, in combination with cisplatin and vinorelbin, previously untreated patients; cited from earlier work
[9] = test system: NMU-induced mammary carcinomas; conditions: rat; cited from earlier work

C=C(c1ccc(C(=O)O)cc1)c1cc2c(cc1C)C(C)(C)CCC2(C)C [TARGRETIN]
immune response upon initiation of treatment ([1]; fifth patient, relapse after allogeneic bone marrow transplant): mounted an immune system response | duration leukemia kept under control ([1]; first patient, oral pill formulation): kept under control for nine months | time to death after starting treatment ([1]; fourth patient, raging AML): ≤ 3 days | adverse event ([1]; human, in vivo): developed a pulmonary syndrome very similar to that seen in patients taking trans retinoic acid (ATRA) | additional duration of treatment, leukemia still well under control at death ([1]; second patient, after restart at three capsules daily): 9 months | neutrophil count ([1]; second patient, at six capsules a day, before treatment was stopped): 1500 | neutrophil count ([1]; second patient, treatment restarted at three capsules daily): 600 | neutrophil count ([1]; second patient, within one week after TARGRETIN treatment was stopped): 200 | change of neutrophil count and leukemia count after start of treatment ([1]; second patient, within one week of treatment): neutrophil count and/or immune system was rising and their leukemia count was dropping | patients exhibiting a positive response (increase in neutrophil count and/or decrease in leukemia count) ([1]; terminal AML, TARGRETIN monotherapy): 4 out of 5 | resolution of disseminated intravascular coagulation (DIC) ([1]; third patient): resolved within four days | time lived before progressive leukemia ([1]; third patient): approximately 4.5 months | duration of remission ([2]; patient with angiocentric T-cell lymphoma, prior bone marrow transplant failed): in remission for three months | duration of remission ([2]; patient with post-transplant lymphoproliferative disorder type lymphoma, prior chemotherapy failed): in remission for four months | efficacy of combination treatment [3]: significantly greater than expected | efficacy in eczema dermatitis [4]: effective substitute for tacrolimus and steroids | tolerability ([5]; 100 to 150 mg per meter square of body surface area, ongoing clinical trials): well-tolerated | tolerability ([5]; oral 2-3 capsules a day or 150 to 225 mg a day): without unwanted side effects | efficacy against melanoma [6]: ineffective | effect on proliferation [7]: decrease | response rate and survival [8]: acceptable phase II response rates with better-than expected survival | efficacy as chemopreventative and chemotherapeutic agent [9]: efficacious
